Measurements: US20230265103A1 (TME Therapeutics LLC, priority 2021, published 2023)

Molecular target: T1, PIKFYVE (Homo sapiens, UniProt Q9Y2I7)
T1 construct: purchased Eurofins (KINOMEscan); host or cells: E. coli BL21-derived (T7 phage display) or HEK-293
Test: KINOMEscan Kinase Assay (Eurofins), PIKFYVE inhibitory activity
Type: binding
Conditions: for IC50: KINOMEscan

T1 sequence (Q9Y2I7 whole entry): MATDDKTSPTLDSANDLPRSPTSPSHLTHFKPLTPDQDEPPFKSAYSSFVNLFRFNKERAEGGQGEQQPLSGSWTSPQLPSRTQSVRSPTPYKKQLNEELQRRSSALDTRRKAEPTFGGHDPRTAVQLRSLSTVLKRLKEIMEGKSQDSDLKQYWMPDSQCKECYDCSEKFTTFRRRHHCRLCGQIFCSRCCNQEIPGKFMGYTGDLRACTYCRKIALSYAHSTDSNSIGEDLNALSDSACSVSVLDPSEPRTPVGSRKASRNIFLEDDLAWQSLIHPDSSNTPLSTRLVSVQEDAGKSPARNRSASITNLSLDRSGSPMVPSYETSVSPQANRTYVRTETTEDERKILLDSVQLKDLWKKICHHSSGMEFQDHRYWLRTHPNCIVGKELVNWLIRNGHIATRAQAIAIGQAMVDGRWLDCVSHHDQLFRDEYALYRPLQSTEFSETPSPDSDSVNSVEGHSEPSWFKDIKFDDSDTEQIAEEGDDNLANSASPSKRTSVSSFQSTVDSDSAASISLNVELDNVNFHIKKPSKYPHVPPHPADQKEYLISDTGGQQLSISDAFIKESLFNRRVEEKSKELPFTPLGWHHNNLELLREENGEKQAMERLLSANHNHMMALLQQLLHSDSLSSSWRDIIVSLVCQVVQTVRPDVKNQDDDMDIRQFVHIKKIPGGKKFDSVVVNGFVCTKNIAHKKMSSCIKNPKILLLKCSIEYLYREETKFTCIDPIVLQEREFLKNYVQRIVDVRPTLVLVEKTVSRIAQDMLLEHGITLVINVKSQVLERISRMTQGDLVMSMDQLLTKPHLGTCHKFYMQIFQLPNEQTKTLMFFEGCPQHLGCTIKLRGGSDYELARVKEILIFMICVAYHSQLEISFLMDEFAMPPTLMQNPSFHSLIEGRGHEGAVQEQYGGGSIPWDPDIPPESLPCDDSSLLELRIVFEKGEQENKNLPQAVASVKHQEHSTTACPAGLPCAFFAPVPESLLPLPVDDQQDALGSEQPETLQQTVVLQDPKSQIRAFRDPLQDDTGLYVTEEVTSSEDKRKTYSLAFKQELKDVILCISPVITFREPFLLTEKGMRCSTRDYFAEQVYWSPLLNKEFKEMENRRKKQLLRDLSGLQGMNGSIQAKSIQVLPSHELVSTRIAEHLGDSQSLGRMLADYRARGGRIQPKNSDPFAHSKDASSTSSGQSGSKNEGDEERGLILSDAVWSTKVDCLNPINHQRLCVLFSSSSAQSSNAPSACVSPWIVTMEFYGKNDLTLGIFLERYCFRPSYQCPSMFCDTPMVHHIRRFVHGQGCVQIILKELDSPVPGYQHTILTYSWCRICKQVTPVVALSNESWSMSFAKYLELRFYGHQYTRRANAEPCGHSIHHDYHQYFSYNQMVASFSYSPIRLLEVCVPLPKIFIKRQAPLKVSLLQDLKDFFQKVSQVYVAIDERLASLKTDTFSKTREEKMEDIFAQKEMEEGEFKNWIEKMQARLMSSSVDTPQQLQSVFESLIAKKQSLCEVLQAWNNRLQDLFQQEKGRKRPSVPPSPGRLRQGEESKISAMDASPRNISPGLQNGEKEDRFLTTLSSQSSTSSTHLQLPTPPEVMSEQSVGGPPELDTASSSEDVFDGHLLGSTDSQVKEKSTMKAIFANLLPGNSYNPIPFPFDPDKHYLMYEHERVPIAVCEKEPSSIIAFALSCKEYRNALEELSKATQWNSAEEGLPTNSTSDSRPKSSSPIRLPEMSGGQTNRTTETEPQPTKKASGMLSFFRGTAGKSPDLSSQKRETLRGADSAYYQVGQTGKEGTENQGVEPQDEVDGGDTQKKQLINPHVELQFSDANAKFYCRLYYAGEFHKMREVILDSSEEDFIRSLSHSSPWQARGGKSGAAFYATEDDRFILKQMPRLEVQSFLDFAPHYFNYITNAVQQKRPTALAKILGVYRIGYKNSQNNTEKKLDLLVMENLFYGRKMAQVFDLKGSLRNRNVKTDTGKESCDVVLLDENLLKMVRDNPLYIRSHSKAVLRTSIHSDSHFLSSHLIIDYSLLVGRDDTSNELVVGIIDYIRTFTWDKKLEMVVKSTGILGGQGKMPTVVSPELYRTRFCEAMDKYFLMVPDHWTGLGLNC

Row | IC50 | SMILES | further results
1 | < 1 nM | Cc1cccc(-c2ccn(-c3cc(N4CCOCC4)c4sc(CN5CCC(N6CCC6)C(F)C5)cc4n3)n2)c1 (stereo not shown) [Ex. 70, 4-(2-((4-(azetidin-1-yl)-3-fluoropiperidin-1-yl)methyl)-5-(3-(m-tolyl)-1H-pyrazol-1-yl)thieno[3,2-b]pyridin-7-yl)morpholine] | 
2 |  | Cc1cccc(-c2ccn(-c3nc(N4CCOCC4)c4sc(CO)c(C)c4n3)n2)c1 [Ex. 53, (7-methyl-4-morpholino-2-(3-(m-tolyl)-1H-pyrazol-1-yl)thieno[3,2-d]pyrimidin-6-yl)methanol] | inhibition at 0.001 µM (@ 1 nM): 17%
3 | < 1 nM | Cc1cccc(-c2ccn(-c3nc(N4CCOCC4)c4sc(CN5CCC(N6CCC6)C(F)C5)c(C)c4n3)n2)c1 (stereo not shown) [Ex. 58, 4-(6-((4-(azetidin-1-yl)-3-fluoropiperidin-1-yl)methyl)-7-methyl-2-(3-(m-tolyl)-1H-pyrazol-1-yl)thieno[3,2-d]pyrimidin-4-yl)morpholine] | 
4 | < 1 nM | Cc1cccc(-c2ccn(-c3nc(N4CCOCC4)c4sc(C(=O)N5CCC(N(C)C)CC5)cc4n3)n2)c1 [Ex. 23, (4-(dimethylamino)piperidin-1-yl)(4-morpholino-2-(3-(m-tolyl)-1H-pyrazol-1-yl)thieno[3,2-d]pyrimidin-6-yl)methanone] | 
5 | < 1 nM | Cc1cccc(-c2ccn(-c3cc(N4CCOCC4)c4nc(CN5CCOCC5)[nH]c4n3)n2)c1 [Ex. 38, 4-((7-morpholino-5-(3-(m-tolyl)-1H-pyrazol-1-yl)-3H-imidazo[4,5-b]pyridin-2-yl)methyl)morpholine] | 
6 | < 1 nM | Cc1cccc(-c2ccn(-c3cc(N4CCOCC4)c4nc(CN5CCOCC5)n(C)c4n3)n2)c1 [Ex. 74, 4-(3-methyl-2-(morpholinomethyl)-5-(3-(m-tolyl)-1H-pyrazol-1-yl)-3H-imidazo[4,5-b]pyridin-7-yl)morpholine] | 
7 | 1 to 10 nM | Cc1cccc(-c2ccn(-c3nc(N4CCOCC4)c4sc(C(=O)N5CCN(C)CC5)c(C)c4n3)n2)c1 [Ex. 59, (7-methyl-4-morpholino-2-(3-(m-tolyl)-1H-pyrazol-1-yl)thieno[3,2-d]pyrimidin-6-yl)(4-methylpiperazin-1-yl)methanone] | 
8 | < 1 nM | Cc1cccc(-c2ccn(-c3nc(N4CCOCC4)c4nc(CN5CCN(S(C)(=O)=O)CC5)[nH]c4n3)n2)c1 [Ex. 10, 4-(8-((4-(methylsulfonyl)piperazin-1-yl)methyl)-2-(3-(m-tolyl)-1H-pyrazol-1-yl)-9H-purin-6-yl)morpholine] | 
9 |  | CC(=O)N(C)C1CCN(Cc2cc3nc(-n4ccc(-c5cccc(C)c5)n4)nc(N4CCOCC4)c3s2)CC1 [Ex. 7, N-methyl-N-(1-((4-morpholino-2-(3-(m-tolyl)-1H-pyrazol-1-yl)thieno[3,2-d]pyrimidin-6-yl)methyl)piperidin-4-yl)acetamide] | inhibition at 0.05 µM (@ 50 nM): 100%
10 | < 1 nM | Cc1cccc(-c2ccn(-c3nc(N4CCOCC4)c4sc(CN5CCC(N(C)C)CC5)cc4n3)n2)c1 [Ex. 4, N, N-dimethyl-1-((4-morpholino-2-(3-(m-tolyl)-1H-pyrazol-1-yl)thieno[3,2-d]pyrimidin-6-yl)methyl)piperidin-4-amine] | 
11 | 1 to 10 nM | Cc1cccc(-c2ccn(-c3cc(N4CCOCC4)c4nc(CN5CC(N(C)C)C5)[nH]c4n3)n2)c1 [Ex. 48, N,N-dimethyl-1-((7-morpholino-5-(3-(m-tolyl)-1H-pyrazol-1-yl)-3H-imidazo[4,5-b]pyridin-2-yl)methyl)azetidin-3-amine] | 
12 | 1 to 10 nM | Cc1cccc(-c2ccn(-c3nc(N4CCOCC4)c4nc(CN5CCN(C)CC5)sc4n3)n2)c1 [Ex. 34, 4-(2-((4-methylpiperazin-1-yl)methyl)-5-(3-(m-tolyl)-1H-pyrazol-1-yl)thiazolo[5,4-d]pyrimidin-7-yl)morpholine] | 
13 | < 1 nM | Cc1cccc(-c2ccn(-c3cc(N4CCOCC4)c4nc(CN5CCN(S(C)(=O)=O)CC5)n(C)c4n3)n2)c1 [Ex. 72, 4-(3-methyl-2-((4-(methylsulfonyl)piperazin-1-yl)methyl)-5-(3-(m-tolyl)-1H-pyrazol-1-yl)-3H-imidazo[4,5-b]pyridin-7-yl)morpholine] | 
